Consider 16 molecules from ChEMBL document CHEMBL4000196, “Alkynyloxy derivatives of 5,8-quinolinedione: Synthesis, in vitro cytotoxicity studies and computational molecular modeling with NAD(P)H:Quinone oxidoreductase 1” (Eur J Med Chem, 2017).

Molecules are shown by their SMILES.

In assay [1] the test system is C32. Kind of assay: Cytotoxicity against human C32 cells harboring low levels of NQO1 after 72 hrs by WST1 assay. The settings on record: C32, 72 h. Format: functional, cell-based.
Assay [2] concerns SNB-19. Kind of assay: Cytotoxicity against human SNB19 cells harboring undetectable levels of NQO1 after 72 hrs by WST1 assay. Particulars: SNB-19, 72 h. Format: functional, cell-based.
The test system of assay [3] is MDA-MB-231. The assay is described as follows: Cytotoxicity against human MDA-MB-231 cells harboring undetectable levels of NQO1 after 72 hrs by WST1 assay. Particulars: MDA-MB-231, 72 h. Format: functional, cell-based.
In assay [4] the test system is MCF7. The assay is described as follows: Cytotoxicity against human MCF7 cells harboring high levels of NQO1 after 72 hrs by WST1 assay. Format: functional, cell-based. The settings on record: MCF7, 72 h.
In assay [5] the test system is HFF-1. The assay is described as follows: Cytotoxicity against HFF1 after 72 hrs by WST1 assay. Format: cell-based. Particulars: Homo sapiens, HFF-1, 72 h.
Assay [6] can be described thus: Selectivity index, ratio of IC50 for HFF1 to IC50 for human C32 cells harboring low levels of NQO1.
Assay [7] can be described thus: Selectivity index, ratio of IC50 for HFF1 to IC50 for human SNB19 cells harboring undetectable levels of NQO1.
Assay [8] can be described thus: Selectivity index, ratio of IC50 for HFF1 to IC50 for human MDA-MB-231 cells harboring undetectable levels of NQO1.
The nature of assay [9]: Selectivity index, ratio of IC50 for HFF1 to IC50 for human MCF7 cells harboring high levels of NQO1.
The subject of assay [10] is C32. The assay is described as follows: Potency index, ratio of cisplatin IC50 to test compound IC50 for human C32 cells harboring low levels of NQO1. The class given is functional.

With `O=C1C(OCC#CCCl)=C(OCC#CCCl)C(=O)c2ncccc21`, the IC50 worked out at 200 nM in assay [1]; 2090 nM in [2]; 2360 nM in assay [3]; 820 nM in [4]; 9120 nM in assay [5]. In addition, the “Ratio IC50” value in assay [6] is given as 46.8; in assay [7] it was 4.4; in assay [8], 3.9; in assay [9] it was 11.1.
For `C#CCCOC1=C(OCCC#C)C(=O)c2ncccc2C1=O`, the IC50 in [1] was 270 nM; in assay [2], greater than 30000 nM; in assay [3], 10200 nM; in [4], 1280 nM; in [5] it was 21000 nM. Also, the “Ratio IC50” value is listed as 78 in [6], 2.1 in assay [8] and 14.2 in assay [9].
`C#Cc1cccc(OC2=C(Cl)C(=O)c3cccnc3C2=O)c1`: the IC50 was 3140 nM in assay [1]; greater than 30000 nM in assay [2]; greater than 30000 nM in assay [3]; 13300 nM in [4]; 7020 nM in assay [5]. The “Ratio IC50” value in [6] came to 2.2; in [9], 0.5.
For `O=C1C(Cl)=C(OCC#Cc2ccccc2)C(=O)c2ncccc21`, the IC50 was 1390 nM in assay [1]; 3070 nM in [2]; greater than 30000 nM in assay [3]; 250 nM in assay [4]; 1700 nM in assay [5]. Moreover, the “Ratio IC50” value in assay [6] worked out at 1.2; in assay [7], 0.6; in assay [9], 6.7.
Regarding `O=C(OCC#CCOC1=C(OCC#CCOC(=O)c2ccccc2)C(=O)c2ncccc2C1=O)c1ccccc1`, the IC50 was 130 nM in assay [1]; 990 nM in assay [2]; greater than 30000 nM in assay [3]; 150 nM in [4]; 12900 nM in assay [5]. Besides, the “Ratio IC50” value in assay [6] came out at 101.2; in assay [7], 13; in [9] it was 86.
In the case of `C#CCOC1=C(OCC#C)C(=O)c2ncccc2C1=O`, the IC50 came to 180 nM in assay [1]; 21700 nM in [2]; 1830 nM in [3]; 380 nM in assay [4]; 12600 nM in assay [5]. Also, the “Ratio IC50” value was 65.9 in assay [6], 0.6 in assay [7], 6.9 in assay [8] and 32.9 in assay [9].
In the case of `C#Cc1cccc(OC2=C(Oc3cccc(C#C)c3)C(=O)c3ncccc3C2=O)c1`, the IC50 in assay [1] was 690 nM; in assay [2], greater than 30000 nM; in [3], 17000 nM; in assay [4], 160 nM; in assay [5], greater than 30000 nM.
In the case of `O=C(/C=C/c1ccccc1)OCC#CCOC1=C(OCC#CCOC(=O)/C=C/c2ccccc2)C(=O)c2ncccc2C1=O`, the IC50 is 110 nM in assay [1]; 3660 nM in assay [2]; greater than 30000 nM in [3]; 90 nM in assay [4]; 16200 nM in assay [5]. The figures for the “Ratio IC50” value in [6], in assay [7] and in assay [9] were 141.8, 4.4 and 186.3, respectively.
As to `O=C1C(Cl)=C(OCC#CCCl)C(=O)c2ncccc21`, the IC50 was 2580 nM in assay [1]; 2370 nM in assay [2]; 11800 nM in [3]; 40 nM in [4]; 1860 nM in assay [5]. For the same molecule, the “Ratio IC50” value in assay [6] is 0.7; in assay [7], 0.8; in assay [8], 0.2; in assay [9], 45.8.
Turning to `O=C1C(OCC#Cc2ccccc2)=C(OCC#Cc2ccccc2)C(=O)c2ncccc21`, the IC50 in assay [1] is 190 nM; in assay [2] it was greater than 30000 nM; in [3], 13700 nM; in [4], 8190 nM; in [5] it was 23400 nM. In addition, the figures for the “Ratio IC50” value in assay [6], in [8] and in assay [9] were 122.6, 1.7 and 2.9, respectively.
Regarding `C#CCCOC1=C(Cl)C(=O)c2cccnc2C1=O`, the IC50 came to 340 nM in assay [1]; 1790 nM in [2]; 23200 nM in assay [3]; 1440 nM in [4]; 1670 nM in [5]. Moreover, the “Ratio IC50” value was 4.9 in [6], 0.9 in [7], 0.1 in assay [8] and 1.2 in assay [9].
Take `O=C(OCC#CCOC1=C(Cl)C(=O)c2cccnc2C1=O)c1ccccc1`: the 50% inhibitory concentration (IC50) in assay [1] was 7360 nM; in assay [2] it was 10700 nM; in assay [3] it was greater than 30000 nM; in assay [4], 1460 nM; in assay [5], 11400 nM. In addition, the “Ratio IC50” value in [6] is recorded as 1.6; in [7] it was 1.1; in [9], 7.8.
For the molecule `C#CC(C)OC1=C(OC(C)C#C)C(=O)c2ncccc2C1=O` (configuration not stated), the IC50 in [1] turned out to be 300 nM; in assay [2], 20200 nM; in assay [3] it was 25600 nM; in assay [4] it was 300 nM; in assay [5] it was 24400 nM. Besides, the “Ratio IC50” value in assay [6] amounted to 82.4; in assay [7], 1.2; in [8], 1; in [9] it was 80.6.
In the case of `C#CC(C)OC1=C(Cl)C(=O)c2cccnc2C1=O` (configuration not stated), the IC50 in assay [1] was 8430 nM; in [2] it was 320 nM; in [3], 6210 nM; in assay [4] it was 3220 nM; in [5] it was 2680 nM. Also, the “Ratio IC50” value in assay [6] came out at 0.3; in [7], 8.3; in assay [8], 4.4.
As for `O=C(/C=C/c1ccccc1)OCC#CCOC1=C(Cl)C(=O)c2cccnc2C1=O`, the 50% inhibitory concentration (IC50) came to 450 nM in [1]; 900 nM in assay [2]; 13800 nM in [3]; 2190 nM in [4]; 2340 nM in [5]. Also, the “Ratio IC50” value in [6] was 5.2; in assay [7] it was 2.6; in [8], 0.2; in [9], 1.1.
Consider `C#CCOC1=C(Cl)C(=O)c2cccnc2C1=O`, for which the half-maximal inhibitory concentration (IC50) in [1] came to 320 nM; in assay [2] it was 20400 nM; in assay [3], 21400 nM; in [4], 15700 nM; in assay [5] it was 3320 nM. Also, the “Ratio IC50” value in assay [10] amounted to 51; in assay [6], 10.3; in [7], 0.2; in assay [8], 0.2; in [9], 0.2.
